We go through 1 molecule from publication PMC10587737, “Dracorhodin targeting CMPK2 attenuates inflammation: A novel approach to sepsis therapy” (Clinical and Translational Medicine, 2023).

In assay [1] the test system is ASC oligomerization in BMDMs. In words: ASC oligomerization assay. It counts as cell-based, mouse. As to conditions: DP 12 h before or 1 h after LPS; ATP/Nigericin. The protocol: BMDMs were seeded at 1×10^6 cells/ml in 6-well plates. After cell adherence, BMDMs were treated with different concentrations of DP. The following day, the medium was replaced, and the cells were primed with 200 ng/ml LPS for 4 h and then stimulated with Nigericin or ATP for 45 min. BMDMs were primed with 200 ng/ml LPS for 4 h. The cells were treated with DP for 1 h and then stimulated with Nigericin or ATP for 45 min. The supernatant was removed, the cells were rinsed in ice-cold PBS, and then, the cells were lysed with NP-40 for 30 min. Lysates were centrifuged at 6000×g for 10 min at 4°C. The pellets were washed twice in 200 μl of ice-cold PBS and resuspended in 200 μl of PBS. Then, 2 mM disuccinimidyl suberate (DSS) was added to the resuspended pellets, which were incubated at room temperature for 30 min with rotation. Samples were then centrifuged at 6000×g for 10 min at 4°C. The cross-linked pellets were resuspended in 40 μl of 2× loading buffer and then boiled and analyzed by immunoblotting.

The subject of assay [2] is cellular CMPK2 activity in BMDMs. Description: Effect on cellular CMPK2 activity (ADP-Glo on cell lysates). The format is cell-based, mouse. The protocol: Primary BMDMs were generated by culturing mouse bone marrow cells in the presence of 20 ng/ml M-CSF conditioned medium for 7 days. BMDMs were seeded in 6-well plates overnight in FBS-free DMEM. After adhering to the wall, different concentrations of DP were added and treated for 12 hours. On day 2, after priming with ultrapure LPS (200 ng/ml) for 4 h, BMDMs (1 × 10^6 cells/ml) were further stimulated with ATP (4 mM) or Nigericin (10 μM) for 45 min. Cell lysates were collected for ADP-Glo™ Kinase Assay (Promega, Madison, WI, USA).

Assay [3] has as its system siCmpk2/dsCmpk2-transduced BMDMs. Description: Inflammasome readouts in siCmpk2- or dsCmpk2-transduced BMDMs. It counts as cell-based, mouse. The protocol: BMDMs were plated in 6-well plates at a density of 1.5×10^6 cells per well and then transfected with 150 nM siRNA using Lipofectamine RNAiMAX according to the manufacturer’s guidelines (Invitrogen). siRNA sequences were chemically synthesized by GenePharma, and the negative control siRNA was also from GenePharma. The siRNA sequences were as follows: sicmpk2 5’-[…]-3’.
Full-length human CMPK2 was cloned and inserted into a pcDNA3.1(+) vector (Invitrogen) for expression in mouse BMDMs. An HA tag was placed after the C-terminal of CMPK2. Mouse BMDMs were transfected using Fugene HD Transfection Reagent (Promega) with the CMPK2 plasmid. BMDMs were plated in 6-well plates at a density of 1.5×10^6 cells per well and then transfected with 6 μg dsDNA using FuGENE according to the manufacturer’s guidelines (Promega).

Assay [4] addresses T1, CMPK2 lysine residues (Homo sapiens, UniProt Q5EBM0).
T1 construct: the N‐terminus was truncated by 22 amino acids; 6xHis (C); made in house; host or cells: FreeStyle 293-F cells (pTT5 vector)
T1 sequence (Q5EBM0 22-449): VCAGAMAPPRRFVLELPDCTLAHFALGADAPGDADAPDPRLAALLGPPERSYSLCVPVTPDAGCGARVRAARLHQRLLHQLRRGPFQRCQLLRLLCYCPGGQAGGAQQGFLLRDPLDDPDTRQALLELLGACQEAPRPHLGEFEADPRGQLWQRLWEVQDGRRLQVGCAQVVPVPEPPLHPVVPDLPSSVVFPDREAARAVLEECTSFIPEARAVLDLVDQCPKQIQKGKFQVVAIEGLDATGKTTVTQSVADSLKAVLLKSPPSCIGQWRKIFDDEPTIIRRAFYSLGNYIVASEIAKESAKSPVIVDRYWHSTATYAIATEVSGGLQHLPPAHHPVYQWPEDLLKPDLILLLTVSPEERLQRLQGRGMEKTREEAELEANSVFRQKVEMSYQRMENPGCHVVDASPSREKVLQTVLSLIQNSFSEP
Description: Quantitative lysine reactivity profiling (dimethyl labelling). The protocol:
The extent of DP intervention on lysine residues of CMPK2 conformational changes was visualized and the correlation between this effect and the inhibitory potency of the inhibitor was assessed. […] Finally, after the concentration of the active small molecule was fixed, the concentration of the target protein CMPK2 was tested for lysine labelling reactivity according to a gradient of 0.025, 0.05 and 0.1 mg/mL. The range of concentrations used to investigate the effect of small‐molecule ligands on CMPK2 activity was 0.1–150 μM. Each data point contains three biological replicates.
Stable isotope labeling reactions were performed in the active state of the target protein samples. In short, the sample was split into two identical portions. One portion was incubated with DP, and the other was incubated with DMSO vehicle for 30 min at 37℃. Then, mass-differentiated isotopic labeling was performed with heavy (30 mM CD2O, 5 mM NaBH3CN) and light (30 mM CH2O, 5 mM NaBH3CN) labeling reagents. Active isotopic labeling was allowed to proceed for the indicated time, and this experiment allowed incubation for 15 min at 25℃ in the dark. Add 5 M NH4AC and react for 10 min at room temperature to stop the labeling reaction. […] The digested peptide samples were collected by centrifugation, lyophilized, and stored at -80℃ for quantitative proteomic analysis.

Assay [5] concerns BMDMs. Description: Mitochondrial membrane potential (JC-1) and mtROS (MitoSOX). The format is cell-based, mouse. The conditions noted are these: DP 12 h, LPS priming, ATP. How it is done: The treated bone marrow‐derived macrophages (BMDMs) and JC‐1 working solution were incubated in a cell incubator for 30 min. At the end of the warm incubation, the cells were washed three times with PBS, and images were captured with a Harmony 4.8 (PerkinElmer). Meanwhile, the stained BMDMs were quantified by flow cytometry.
For mitochondrial ROS (mtROS) measurement, according to the instruction guidelines, a diluted 5 μM MitoSOX working solution was incubated with treated BMDMs in a cell incubator for 10 min according to the instructional guidelines. The BMDMs were gently washed with warm buffer to remove the working solution. The images were captured using Harmony 4.8 (PerkinElmer). Meanwhile, the stained BMDMs were quantified by flow cytometry.

As for `COc1c2ccc(-c3ccccc3)oc-2cc(=O)c1C` [compound 73, Dracohodin perochlorate], the ASC oligomerization result in assay [1] is listed as “blocked”. For the same molecule, in assay [2] (DP 10 μM), the “cellular CMPK2 inhibition” value is recorded as “enhanced significantly”. In addition, the “cellular CMPK2 enzyme activity” value in assay [2] (DP 2.5 and 5 μM) is on record as “tendency to inhibit”. In addition, in assay [3] (CMPK2-overexpressing BMDMs), the “effect on TNF-α in supernatant” value is on record as “negligible” and the “inhibitory effect on IL-1β” value is “reversed”. Also, the “release of TNF-α in supernatant” value in assay [3] (WT/siCmpk2 BMDMs, DP 12 or 1 h, ATP/Nigericin) is “no significant change”. In assay [3] (siCmpk2-transduced BMDMs, different concentrations of DP), the ASC oligomerization result is “not significantly altered”. For the same molecule, the “isotope-labelling ratios of lysine residues” value in assay [4] (residues K245, K249, K282, K320, K324, K293, K265, K251, K277 and K368) was “lower than 0.5”. The “isotope-labelling ratios of lysine residues” value in assay [4] (residues K393, K433 and K409, DP–CMPK2 co-incubation) is reported as “approximately 1”. In assay [5], the mitochondrial membrane potential entry was “significantly reversed” and the mtROS production result is listed as “inhibited”.
